Data published in paper PMC10939250 (PLOS Biology, 2024).
Residues, ends and D or L forms follow the SMILES beside them.

Key:
[1] = test system: Jurkat cells
[2] = test system: SARS-CoV-2 WA1 virus
[3] = mouse, in vivo

## CC[C@H](C)[C@H](NC(=O)[C@H](CC(C)C)NC(=O)[C@@H](NC(=O)CNC(=O)[C@@H](NC(=O)[C@H](CC(=O)O)NC(=O)[C@H](CC(=O)O)NC(=O)[C@H](CO)NC(=O)[C@@H](NC(=O)[C@H](Cc1ccccc1)NC(=O)[C@H](CO)NC(=O)[C@H](Cc1ccc(O)cc1)NC(=O)[C@H](CCSC)NC(=O)[C@H](CCC(N)=O)NC(=O)[C@@H]1CCCN1C(=O)[C@@H]1CCCN1C(=O)[C@H](CCCNC(=N)N)NC(=O)[C@H](CCCNC(=N)N)NC(=O)[C@H](CCCNC(=N)N)NC(=O)[C@H](CCC(N)=O)NC(=O)[C@H](CCCNC(=N)N)NC(=O)[C@H](CCCNC(=N)N)NC(=O)[C@H](CCCCN)NC(=O)[C@H](CCCCN)NC(=O)[C@H](CCCNC(=N)N)NC(=O)CN)C(C)C)[C@@H](C)O)[C@@H](C)O)C(=O)N[C@H](C(=O)N[C@@H](CC(N)=O)C(=O)N[C@@H](CO)C(=O)N[C@H](C(=O)N[C@@H](CC(C)C)C(=O)O)C(C)C)C(C)C [iPep-SARS2-E] (H-GRKKRRQRRRPPQMYSFVSDDTGTLIVNSVL-OH)
[1]
  Cellular toxicity (healthy, apoptotic, dead/necrotic cells): does not cause cellular toxicity
[2]
  IC50: ~400 nM
[3]
  Body weight and inflammation markers Cxcl12 and C5a: did not find any significant differences
